≈ marks a conversion by molar mass, not a printed value. Where “and” joins values, the source holds several entries; their conditions need not be identical. Equal entries are not always repeated. Each block holds one molecule with its values, some of them ahead of it.
Tests used:
Assay in all cases: ≥ marks a high value that may be exact or a test limit, other limits are often not marked, values filed in µg/mL are converted to µM
Aeromonas salmonicida = system: Aeromonas salmonicida
[1] = system: Pseudomonas aeruginosa K799
[2] = system: Pseudomonas aeruginosa Z61
[3] = system: Salmonella enterica serovar typhimurium MS7953s
[4] = system: Salmonella enterica subsp. enterica serovar Typhimurium ATCC 14028s
[5] = system: Staphylococcus epidermidis C621
Vibrio anguillarum = system: Vibrio anguillarum
Candida albicans = system: Candida albicans
[6] = system: Pseudomonas aeruginosa ATCC 27853
[7] = system: Staphylococcus aureus ATCC 49476
Staphylococcus aureus MR = system: Staphylococcus aureus MR
[8] = system: Candida krusei CCARM 14017
[9] = system: Candida parapsilosis CCARM 14016
[10] = system: Candida tropicalis KCTC 7221
[11] = system: Fusarium oxysporum KCTC 16909
[12] = system: Fusarium verticillioides KCTC 6149
[13] = system: Trichosporon beigelii KCTC 7707
Escherichia coli DH10B = system: Escherichia coli DH10B
[14] = system: Saccharomyces cerevisiae BY4741
[15] = system: Bacillus subtilis ATCC 6633
[16] = system: Candida albicans CGMCC 2.2411
[17] = system: Enterococcus faecalis CVCC 3936
[18] = system: Escherichia coli CVCC 1515
[19] = system: Escherichia coli CVCC 195
[20] = system: Listeria ivanovii ATCC 19119
[21] = system: Pseudomonas aeruginosa CICC 10419
[22] = system: Salmonella enterica subsp. enterica serovar Pullorum CVCC 1809
[23] = system: Salmonella enterica subsp. enterica serovar Pullorum CVCC 533
[24] = system: Salmonella enterica subsp. enterica serovar Typhimurium ATCC 14028
[25] = system: Staphylococcus aureus ATCC 43300
[26] = system: Streptococcus suis CVCC 606
Bacillus cereus = system: Bacillus cereus
Escherichia coli = system: Escherichia coli
Leuconostoc lactis = system: Leuconostoc lactis
Listeria innocua = system: Listeria innocua
Micrococcus luteus = system: Micrococcus luteus
Pasteurella multocida = system: Pasteurella multocida
Staphylococcus aureus = system: Staphylococcus aureus
[27] = system: Staphylococcus epidermidis
Streptococcus uberis = system: Streptococcus uberis

SMILES: CC[C@H](C)[C@H](NC(=O)[C@H](C)NC(=O)[C@H](CCCCN)NC(=O)CNC(=O)[C@H](C)NC(=O)[C@H](CO)NC(=O)[C@H](Cc1ccccc1)NC(=O)[C@H](CC(C)C)NC(=O)CNC(=O)CNC(=O)[C@@H](NC(=O)[C@@H](NC(=O)[C@H](Cc1cnc[nH]1)NC(=O)[C@H](Cc1cnc[nH]1)NC(=O)[C@H](C)NC(=O)[C@H](C)N)[C@@H](C)CC)[C@@H](C)CC)C(=O)N[C@@H](Cc1cnc[nH]1)C(=O)N[C@@H](CCCN=C(N)N)C(=O)N[C@@H](CC(C)C)C(=O)N[C@H](C(=O)N[C@@H](CCCN=C(N)N)C(=O)N[C@@H](CCCN=C(N)N)C(=O)N[C@@H](CCCN=C(N)N)C(=O)N[C@@H](CCCN=C(N)N)C(=O)N[C@@H](CCCN=C(N)N)C(=O)O)[C@@H](C)CC [AAHHIIGGLFSAGKAIHRLIRRRRR]
MIC (Candida albicans): 22.4 µM (≈ 64 µg/mL)
MIC [6]: 89.4 µM (≈ 256 µg/mL)
MIC [7]: ≥ 44.7 µM
MIC (Staphylococcus aureus MR): ≥ 179 µM

SMILES: CC[C@H](C)[C@H](NC(=O)[C@H](C)NC(=O)[C@H](CCC(=O)O)NC(=O)[C@H](Cc1cnc[nH]1)NC(=O)[C@H](C)NC(=O)CNC(=O)[C@H](CCC(N)=O)NC(=O)[C@H](Cc1ccccc1)NC(=O)[C@@H](NC(=O)[C@H](CCCCN)NC(=O)[C@H](CCCCN)NC(=O)[C@H](C)NC(=O)[C@H](C)NC(=O)[C@H](CC(N)=O)NC(=O)[C@H](CC(C)C)NC(=O)CN)C(C)C)C(=O)N[C@@H](CCCCN)C(=O)N[C@@H](CC(C)C)C(=O)N[C@H](C(=O)N[C@@H](CC(N)=O)C(=O)N[C@@H](CC(N)=O)C(=O)N[C@@H](Cc1cnc[nH]1)C(=O)N[C@H](C(=O)N[C@@H](CCC(N)=O)C(N)=O)C(C)C)[C@@H](C)CC [GLNAAKKVFQGAHEAIKLINNHVQ]
MIC [8]: 8 µM (≈ 20.8 µg/mL)
MIC [9]: ≥ 64 µM
MIC [10]: 4 µM and 2 µM
MIC [11]: 4 µM and 12 µM
MIC [12]: ≥ 48 µM
MIC [13]: 2 µM (≈ 5.2 µg/mL)

SMILES: CC[C@H](C)[C@H](NC(=O)[C@H](CO)NC(=O)[C@H](CO)NC(=O)[C@H](CCSC)NC(=O)[C@H](CC(C)C)NC(=O)CN)C(=O)NCC(=O)N[C@@H](CCCCN)C(=O)N[C@@H](C)C(=O)N[C@@H](CC(C)C)C(=O)NCC(=O)NCC(=O)N[C@@H](CC(C)C)C(=O)N[C@H](C(=O)N[C@H](C(=O)N[C@@H](CC(=O)O)C(=O)N[C@H](C(=O)N[C@@H](CC(C)C)C(=O)N[C@@H](CCCCN)C(=O)N1CCC[C@H]1C(=O)N[C@@H](CCCCN)C(=O)N[C@H](C(=O)N1CCC[C@H]1C(=O)N[C@@H](C)C(=O)N[C@@H](CO)C(=O)O)[C@@H](C)O)C(C)C)C(C)C)[C@@H](C)CC [GLMSSIGKALGGLIVDVLKPKTPAS]
MIC (Bacillus cereus): ≥ 40.8 µM
MIC (Escherichia coli): > 40.8 µM
MIC (Leuconostoc lactis): ≥ 40.8 µM
MIC (Listeria innocua): ≥ 40.8 µM
MIC (Micrococcus luteus): ≥ 40.8 µM
MIC (Pasteurella multocida): ≥ 40.8 µM
MIC (Staphylococcus aureus): > 40.8 µM
MIC [27]: ≥ 40.8 µM
MIC (Streptococcus uberis): 20.4 µM (≈ 50 µg/mL)

Other lines, results leading:

MIC (Aeromonas salmonicida): 10.9 µM (≈ 32 µg/mL)
MIC [1]: 21.7 µM (≈ 64 µg/mL)
MIC [2]: 21.7 µM (≈ 64 µg/mL)
MIC [3]: 2.72 µM (≈ 8 µg/mL)
MIC [4]: 21.7 µM (≈ 64 µg/mL)
MIC [5]: 21.7 µM (≈ 64 µg/mL)
MIC (Vibrio anguillarum): 21.7 µM (≈ 64 µg/mL)
SMILES: CC[C@H](C)[C@H](NC(=O)[C@@H](N)CO)C(=O)NCC(=O)N[C@@H](CO)C(=O)N[C@@H](C)C(=O)N[C@@H](Cc1ccccc1)C(=O)N[C@@H](CCCCN)C(=O)N[C@@H](CCCCN)C(=O)N[C@@H](C)C(=O)N[C@@H](C)C(=O)N[C@@H](Cc1cnc[nH]1)C(=O)N[C@H](C(=O)NCC(=O)N[C@@H](CCCCN)C(=O)N[C@@H](Cc1cnc[nH]1)C(=O)N[C@H](C(=O)NCC(=O)N[C@@H](CCCCN)C(=O)N[C@@H](C)C(=O)N[C@@H](C)C(=O)N[C@@H](CC(C)C)C(=O)NCC(=O)N[C@@H](C)C(=O)N[C@@H](C)C(=O)N[C@@H](C)C(=O)N[C@@H](CCCN=C(N)N)C(=O)N[C@@H](CCCN=C(N)N)C(=O)N[C@@H](CCCN=C(N)N)C(=O)N[C@@H](CCCCN)C(=O)O)C(C)C)C(C)C [SIGSAFKKAAHVGKHVGKAALGAAARRRK]

MIC (Escherichia coli DH10B): 20 µM (≈ 49.8 µg/mL)
MIC [14]: 10 µM (≈ 24.9 µg/mL)
SMILES: CSCC[C@H](NC(=O)[C@@H]1CCCN1C(=O)[C@H](CCC(N)=O)NC(=O)CNC(=O)[C@@H]1CCCN1C(=O)[C@H](CCCCN)NC(=O)[C@H](CC(C)C)NC(=O)[C@H](CCC(N)=O)NC(=O)[C@H](CC(C)C)NC(=O)[C@H](Cc1c[nH]c2ccccc12)NC(=O)[C@H](Cc1cnc[nH]1)NC(=O)[C@H](Cc1c[nH]c2ccccc12)NC(=O)[C@H](Cc1ccccc1)NC(=O)[C@H](CCCN=C(N)N)NC(=O)[C@H](CC(N)=O)NC(=O)[C@H](CC(C)C)NC(=O)[C@H](Cc1ccccc1)NC(=O)[C@@H](N)CCCCN)C(=O)N[C@@H](Cc1ccc(O)cc1)C(=O)O [KFLNRFWHWLQLKPGQPMY]

MIC [15]: 25.8 µM (≈ 63.9 µg/mL)
MIC [16]: 25.8 µM (≈ 63.9 µg/mL)
MIC [17]: 25.8 µM (≈ 63.9 µg/mL)
MIC [18]: 25.8 µM (≈ 63.9 µg/mL)
MIC [19]: 25.8 µM (≈ 63.9 µg/mL)
MIC [20]: 25.8 µM (≈ 63.9 µg/mL)
MIC [21]: 25.8 µM (≈ 63.9 µg/mL)
MIC [22]: 25.8 µM (≈ 63.9 µg/mL)
MIC [23]: 25.8 µM (≈ 63.9 µg/mL)
MIC [24]: > 25.8 µM
MIC [25]: > 25.8 µM
MIC [26]: 25.8 µM (≈ 63.9 µg/mL)
SMILES: CC(C)[C@H](N)C(=O)N[C@H]1CSSC[C@@H](C(=O)N[C@@H](Cc2cnc[nH]2)C(=O)N[C@@H](CCCN=C(N)N)C(=O)N[C@@H](CCCN=C(N)N)C(=O)N[C@@H](C)C(=O)N[C@@H](CC(N)=O)C(=O)N[C@@H](CC(N)=O)C(=O)NCC(=O)N[C@H](C(=O)N[C@@H](CCCN=C(N)N)C(=O)N[C@H](C(=O)O)C(C)C)C(C)C)NC(=O)[C@H](CC(N)=O)NC(=O)[C@H](Cc2c[nH]c3ccccc23)NC(=O)[C@H](C)NC(=O)[C@H](Cc2ccccc2)NC(=O)CNC(=O)[C@H](CCCN=C(N)N)NC(=O)[C@H](Cc2ccc(O)cc2)NC(=O)[C@H](C(C)C)NC1=O [VCVYRGFAWNCHRRANNGVRV]
